How the values were obtained:
[1] = Glycerine vs Bio-PDO - Stability (Shrinkage - 3 months); type: physicochemical
[2] = Glycerine vs Bio-PDO - Efficacy (deodorant actives, in vivo human)
[3] = Glycerine vs Bio-PDO - Irritation (in vivo human)
[4] = Glycerine vs Bio-PDO - Stability (Efficacy/shelf-life); details: active in GLYCERINE; in vivo (human)

In the case of `CCCCCCCCCCCC(=O)OCC(O)CO` (stereo not drawn) [GML, Glyceryl monolaurate], the “Stability (Shrinkage - 3 months), % in product” value ([1]; active in Bio-PDO) is reported as 3%, the “Stability (Shrinkage - 3 months), % in product” value ([1]; active in GLYCERINE) is reported as 0% and the “Efficacy, # hours” value ([2]; active in Bio-PDO) is reported as 12 h. The “Efficacy, # hours” value ([2]; active in GLYCERINE) was 4 h, the “Irritation, Ranking 1-10” value ([3]; active in Bio-PDO) was 0 and the “Irritation, Ranking 1-10” value ([3]; active in GLYCERINE) was 0. The “Stability (Efficacy/shelf-life), # months” value [4] was 6 months.
For “polyglyceryl-3 caprylate [polyglycerol 3 caprylate]”, the “Efficacy, # hours” value ([2]; active in Bio-PDO) was 12 h and the “Efficacy, # hours” value ([2]; active in GLYCERINE) was 0 h.

— patent US20070202062A1, “Natural deodorant compositions comprising renewably-based, biodegradable 1,3-propanediol” (priority 2006, published 2007)
